Results on three compounds are retold here after article PMC12338828, “Evaluation of organotin (IV) dithiocarbamate compounds as potential anti-leukemia agents towards CCRF-CEM (CCL-119) cell line: Cytotoxic, apoptotic, cell cycle and genotoxic study” (PLOS One, 2025).

In general, IC50 refers to the concentration that gives 50% inhibition. For orientation: cell viability means a per cent measure of how many cells are alive, often set against a control.

Series [1] deals with CCL-119 cells. The series is described as follows: Cell cycle analysis (PI/RNase staining). Type of series: cell-based. The settings on record: for cells in G0/G1 phase / cells in G2/M phase / cells in S phase: 24 hours at IC50, single replicates n1-n3. On the procedure:
The cells were cultured and seeded in a 6-well plate at 1 x 10^6 cells/mL. VCR was used as a positive control, and untreated cells were used as a negative control in this assay. The concentration of the compounds and VCR was followed by IC50 values that were taken from the MTT assay.
After 24 hours of incubation, all cells in the plate were transferred to the Eppendorf tube and centrifuged for 5 minutes at 4°C at 1500 rpm. After centrifuging, the supernatant was removed, and cells were washed with 500 µL cold PBS three times. The pellet was fixed by using 70% ethanol overnight at −20°C. Next, the samples were stained with 500 µL of PI/RNase staining buffer and incubated for 15 minutes. The samples were then transferred into Falcon tubes. The data was recorded using a flow cytometer and analyzed using ModFit LT software.

Series [2] relates to WIL2-NS cells. The arrangement: method as in Rasli et al. (2023). The settings on record: non-cancerous cells; 24 hours of exposure; graph referred to earlier paper; ref Rasli et al. (2023); cited from earlier work.
Series [3] has as its system CCL-119 cells. The series is described as follows: MTT cytotoxicity assay. To be noted: for cell viability at 0.31 µM / cell viability at 0.63 µM / cell viability at 1.25 µM / cell viability at 2.50 µM / cell viability at 5.00 µM / Selectivity Index (SI): 24 hours; for cell viability at 0.31 µM / cell viability at 0.63 µM / cell viability at 1.25 µM / cell viability at 2.50 µM / cell viability at 5.00 µM: single replicates n1-n3, untreated = 100.00; for cell viability at 2.50 µM: 2.5 µM; for Selectivity Index (SI): IC50 WIL2-NS / IC50 CCL-119; for IC50: read-out: IC50 (µM) CCL-119, 24 hours of exposure, mean ± SEM, n = 3. As for the experimental part: The T-acute lymphoblastic leukemia cell line, CCRF-CEM (CCL-119™), and a non-cancerous cell, WIL2-NS (CRL-8155™), were purchased from the American Type Culture Collection (ATCC). Both are suspension types of cells and were cultured in Roswell Park Memorial Institute Medium 1640 (RPMI-1640) (Sigma-Aldrich), supplemented with 10% Fetal Bovine Serum (FBS) (Capricorn Scientific) and 1% penicillin-streptomycin (Nacalai Tesque) to obtain the complete growth medium and were incubated at 37 °C with a 5% CO2 incubator. Both suspension cells are used for tests when the cells’ passage becomes passage 3–10 (maximum).
All stock solutions of the organotin (IV) dithiocarbamate compounds were prepared at 10 mM and dissolved in dimethyl sulphoxide (DMSO) (ChemAR®). The stock solutions were stored at 4°C; fresh dilutions were made by adding the RPMI-1640 medium before the experiment. The dilution is carried out using the serial dilution method to obtain the desired concentrations, which are 5 µM, 2.5 µM, 1.25 µM, 0.63 µM, 0.32 µM, and 0.16 µM in this study. Vincristine (VCR) is used as a positive control in this study.
Both CCL-119 and WIL2-NS cells were seeded in a 96-well plate at a final concentration of 5 x 10^5 cells/well and treated with 5 µM, 2.5 µM, 1.25 µM, 0.63 µM, 0.32 µM, and 0.16 µM of organotin (IV) dithiocarbamate compound for 24 hours at 37°C with 5% CO2. VCR was used as a positive control in this study, while cells without treatment were used as a negative control. After 24 hours of exposure, 20 µL of MTT (Merck) salt solution was added into each well and incubated for another 4 hours. The plate was wrapped with aluminium foil as MTT salt is light sensitive. After 4 hours, the purple crystal formazan was formed. All the medium was removed carefully from each well, and 200 µL DMSO was added to each well to dissolve the purple formazan crystal. Then, the plates were incubated for an additional 15 minutes. The results were analyzed and recorded using an ELISA microplate reader at 570 nm. The data was then plotted into a graph, and IC50 values were determined.
The selectivity index (SI) is determined by dividing the cytotoxic activity (IC50 value) of each compound on a non-cancerous cell line (WIL2-NS) by the leukemia cell line (CCL-119). […] WIL2- NS cell lines were selected as the comparator because it is a non-cancerous human B lymphoblast cell line, which is like CCL-119 (T-lymphoblastic leukemia), derived from lymphocytes. This choice ensures that comparisons are made between biologically similar cell types, minimizing variability that could arise from differences in tissue origin or lineage.

Series [4] deals with CCL-119 cells. Kind of series: Mode of cell death, Annexin V-FITC/PI staining (flow cytometry). Type of series: cell-based. The settings on record: for Early Apoptosis (Q4) / Late Apoptosis (Q2) / Necrosis (Q1) / Viable (Q3): 24 hours at IC50, single replicates n1-n3; for cell death through apoptosis (population of cells): 24 hours, treated at IC50, early + late apoptosis. On the procedure:
The mode of cell death can be observed through the Annexin V-FITC/PI staining (BD, USA). The result of this test is either apoptosis or necrosis. […] VCR was used as a positive control, while cells without any treatment were used as a negative control. Then, the plate was incubated for 24 hours. After the incubation, the cell suspension in each well was collected into different Eppendorf tubes. The tubes were then centrifuged for 5 minutes at 1500 rpm at 4°C. After the centrifuge, the supernatant in the tubes was removed, and the cell pellets were washed twice with cold PBS. Then, centrifuge the tubes again and remove the supernatant. Next, 100 µL of Annexin V binding buffer was resuspended in each tube, and 5 µL Annexin V-FITC was pipetted into the tube to stain the cells for 15 minutes at room temperature, dark. After that, 5 µL of propidium iodide was piped into the tube for 5 minutes. The staining process is done in dark conditions. Lastly, the sample was transferred into the Falcon tube, and each tube was resuspended in 400 µL of Annexin V binding buffer. The sample was analyzed using a flow cytometer (BD FACS Canto II) within one hour.
In general terms: In flow cytometry, cells or beads pass a laser one at a time.

In series [5] the test system is CCL-119 cells. The series is described as follows: Alkaline comet assay. In kind it is cell-based. The settings on record: for DNA damage class / Tail moment / percentage of DNA intensity in the tail / % DNA intensity: 1 hour of exposure. On the procedure: VCR was used as a positive control, and untreated cells were used as a negative control in this assay. The cells were incubated for 1 hour. After incubation, cells in each well were transferred to the Eppendorf tube to centrifuge for 5 minutes at 4°C by using a refrigerated microcentrifuge. The supernatant was removed, and the samples were washed with 1 mL of cold PBS. This process was repeated 3 times. After completion of the process, the supernatant was removed, and the pellet was left for a while on top of the ice while preparing the slide.
About 140 µL of normal melting agar (NMA) is pipetted on top of the fully frosted slide, and a cover slip is put on the agar for 5 minutes or until the agar fully solidifies. After that, the cover slip was removed, and 80 µL of low melting agar (LMA) was added to an Eppendorf tube containing the pellet of cells. The suspension was then transferred into a frosted slide with NMA agar. The cover slip was then put back on top of the frosted slide for 10 minutes or until dry. Next, the slide was transferred into a Coplin jar that contained lysis buffer solution and Triton X-100. The slides were then incubated at 4°C overnight. The slides were arranged on an electrophoresis tank filled with electrophoresis buffer for 20 minutes. Electrophoresis is done for another 20 minutes at 25 V with 300 mA. The slides were washed with a neutralization buffer solution 3 times at a 5-minute time interval. Finally, 30 µL of ethidium bromide (50 µg/mL) was added, and the slide was observed by using fluorescence microscopy (OLYMPUS BX51TR). CometScore software is used to analyze the DNA damage of the cells. The comet assay was performed under alkaline conditions (pH > 13) to detect both single- and double-strand DNA breaks.

“And” between values parts separate entries of the source, which are not always exact repeats. Equal values may be shown once.

For `CC(C)N(C(=S)[S][Sn]([S]C(=S)N(C(C)C)C(C)C)([c]1ccccc1)[c]1ccccc1)C(C)C` [ODTC 1, diphenyltin (IV) diisopropyl dithiocarbamate], in series [1], the “cells in G0/G1 phase” value was 44.44% and 52.78% and 46.11%; the “cells in G2/M phase” value was 0.17% and 1.28% and 8.00%; the “cells in S phase” value is 55.38% and 45.94% and 45.89%. Further, the “Phases of Cell Cycle Arrest” value in series [1] (24 hours at IC50 concentrations) is on record as “S phase”. For the same compound, in series [2], the concentration for half-maximal inhibition (IC50) was 1.39 ± 0.46 µM. In addition, in series [3], the “cell viability at 0.31 µM” value is 68.12% and 70.47% and 62.95%; the “cell viability at 0.63 µM” value was 46.30% and 50.11% and 43.95%; the “cell viability at 1.25 µM” value is 30.25% and 39.66% and 27.67%; the “cell viability at 2.50 µM” value was 11.95% and 23.57% and 13.38%. In series [3], the “cell viability at 5.00 µM” value was 8.78% and 22.56% and 11.96%; the “Selectivity Index (SI)” value worked out at 2.48; the IC50 was determined as 0.56 ± 0.04 µM. In series [4], the “Early Apoptosis (Q4)” value was 45.2% and 37.2% and 40.2%; the “Late Apoptosis (Q2)” value was 34.7% and 29.3%; the “Necrosis (Q1)” value was 0.2% and 1% and 0.6%; the “Viable (Q3)” value was 28.4% and 29.5% and 29.9%. In addition, the “cell death through apoptosis (population of cells)” value in series [4] is on record as 77.6%. For the same compound, in series [5], the “DNA damage / genotoxic effect (in words)” value was “highest genotoxic effects” and the DNA damage class result is on record as “class 3”. In series [5] (mean ± SEM), the Tail moment worked out at 68.58 ± 3.31 A.U and the “percentage of DNA intensity in the tail” value is listed as 27.50 ± 2.36%. Further, in series [5] (single replicates n1-n3), the “% DNA intensity” value was 31.5757% and 23.3927% and 27.534%; the Tail moment was 74.8179 A.U and 67.3969 A.U and 63.5391 A.U.

As to `C=CCN(CC=C)C(=S)[S][Sn]([S]C(=S)N(CC=C)CC=C)([c]1ccccc1)[c]1ccccc1` [ODTC 2, diphenyltin (IV) diallyl dithiocarbamate], in series [1], the “cells in G0/G1 phase” value was 51.19% and 55.53% and 53.01%; the “cells in G2/M phase” value is 1.93% and 1.68% and 4.38%; the “cells in S phase” value is 46.88% and 42.78% and 42.61%. Further, in series [2], the concentration for half-maximal inhibition (IC50) is 0.52 ± 0.14 µM. Also, in series [3], the “cell viability at 0.31 µM” value is 49.85% and 27.71% and 26.10%; the “cell viability at 0.63 µM” value was 26.34% and 15.19% and 17.94%; the “cell viability at 1.25 µM” value was 29.61% and 16.46% and 16.39%; the “cell viability at 2.50 µM” value was 28.76% and 19.14% and 15.77%. In addition, in series [3], the “cell viability at 5.00 µM” value is 31.88% and 17.53% and 10.93%; the “Selectivity Index (SI)” value is 2.36; the IC50 was 0.22 ± 0.04 µM. For the same compound, in series [4], the “Early Apoptosis (Q4)” value is 36.1% and 39.2% and 31.1%; the “Late Apoptosis (Q2)” value is 31.5% and 32.9% and 28.1%; the “Necrosis (Q1)” value is 1% and 0.6%; the “Viable (Q3)” value is 31.4% and 27% and 40.2%. Besides, in series [4], the “cell death through apoptosis (population of cells)” value came out at 66.3%. Moreover, in series [5], the “DNA damage / genotoxic effect (in words)” value is recorded as “caused detectable DNA damage” and the DNA damage class entry is listed as “class 2”. In series [5] (mean ± SEM), the Tail moment was 6.83 ± 2.58 A.U and the “percentage of DNA intensity in the tail” value is reported as 10.18 ± 0.89%. Further, in series [5] (single replicates n1-n3), the “% DNA intensity” value is 9.179% and 9.419% and 11.9522%; the Tail moment is 5.421 A.U and 3.237 A.U and 11.8306 A.U.

Turning to `CC(C)N(C(=S)[S][Sn]([c]1ccccc1)([c]1ccccc1)[c]1ccccc1)C(C)C` [ODTC 3, triphenyltin (IV) diisopropyl dithiocarbamate], in series [1], the “cells in G0/G1 phase” value is 9.54% and 24.65% and 21.14%; the “cells in G2/M phase” value was 90.46% and 75.18% and 78.7%; the “cells in S phase” value was 0% and 0.17% and 0.16%. Besides, the IC50 in series [2] is 0.75 ± 0.07 µM. Also, in series [3], the “cell viability at 0.31 µM” value is 47.07% and 58.65% and 40.35%; the “cell viability at 0.63 µM” value is 40.17% and 50.04% and 42.00%; the “cell viability at 1.25 µM” value was 42.27% and 42.45% and 31.66%; the “cell viability at 2.50 µM” value is 35.57% and 24.06% and 25.57%. In addition, in series [3], the “cell viability at 5.00 µM” value is 27.21% and 27.19% and 34.26%; the “Selectivity Index (SI)” value was 3.13. In addition, in series [4], the “Early Apoptosis (Q4)” value is 35.9% and 47.6% and 15.9%; the “Late Apoptosis (Q2)” value is 10.8% and 9% and 12%; the “Necrosis (Q1)” value was 0.1% and 0% and 1.5%; the “Viable (Q3)” value is 53.2% and 43.4% and 70.6%. In addition, in series [5] (mean ± SEM), the Tail moment worked out at 22.25 ± 0.93 A.U and the “percentage of DNA intensity in the tail” value is listed as 10.79 ± 0.72%. Also, in series [5] (single replicates n1-n3), the “% DNA intensity” value was 9.366% and 11.3439% and 11.6624%; the Tail moment was 20.8823 A.U and 21.8477 A.U and 24.0274 A.U.
